Publication PMC7178854 (Journal of Enzyme Inhibition and Medicinal Chemistry, 2020)

Assays:
ASFV protease (pS273R) [1] = biological target: T1, ASFV protease (pS273R) (African swine fever virus BA71V, UniProt Q00946); type: biochemical
T1 construct: gene Ba71V-111

ASFV protease (pS273R) [2] = biological target: T1, ASFV protease (pS273R); assay: biochemical

T1 sequence (Q00946 whole entry, looked up): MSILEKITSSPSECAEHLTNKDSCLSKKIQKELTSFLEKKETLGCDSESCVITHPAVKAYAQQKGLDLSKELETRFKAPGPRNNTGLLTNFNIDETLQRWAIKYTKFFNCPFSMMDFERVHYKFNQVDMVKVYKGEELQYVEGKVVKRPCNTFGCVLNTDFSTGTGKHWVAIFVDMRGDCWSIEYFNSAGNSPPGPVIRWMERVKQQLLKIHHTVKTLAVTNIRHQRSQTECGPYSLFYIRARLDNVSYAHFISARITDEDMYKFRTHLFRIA

Row | SMILES | RFU at 40 μM (ASFV protease (pS273R) [1]) | IC50 (ASFV protease (pS273R) [2]) [µM]
1 | O=c1c(O)c(-c2ccc(O)cc2)oc2c(O)c(O)cc(O)c12 [herbacetin] | Its activity, however, is similar to those of herbacetin, kaempferol and morin | 
2 | O=c1c(O)c(-c2ccc(O)cc2)oc2cc(O)cc(O)c12 [kaempferol] | Its activity, however, is similar to those of herbacetin, kaempferol and morin | 
3 | O=c1c(O)c(-c2ccc(O)cc2O)oc2cc(O)cc(O)c12 [morin] | Its activity, however, is similar to those of herbacetin, kaempferol and morin | 
4 | O=c1c(O)c(-c2cc(O)c(O)c(O)c2)oc2cc(O)cc(O)c12 [myricetin, 3,3′,4′,5,5′,7-Hexahydroxyflavone] |  | 8.4
5 | C[C@@H]1O[C@@H](Oc2c(-c3cc(O)c(O)c(O)c3)oc3cc(O)cc(O)c3c2=O)[C@H](O)[C@H](O)[C@H]1O [myricitrin] |  | 2.7
